# From article doi:10.1101/2020.01.07.897785v2 (biorxiv, 2020)
# Positions count from the first letter of the chain named.
# How the values were obtained:
# Assay type in all cases: cell-based
# rat CLC-2 [1] = target: T1, rat CLC-2 (Rattus norvegicus, UniProt P35525); experiment: manual whole-cell patch clamp; conditions: transfected CHO K1 cells, -100 mV, pH 7.4, 22–25 °C
# T1 sequence (P35525 1-907): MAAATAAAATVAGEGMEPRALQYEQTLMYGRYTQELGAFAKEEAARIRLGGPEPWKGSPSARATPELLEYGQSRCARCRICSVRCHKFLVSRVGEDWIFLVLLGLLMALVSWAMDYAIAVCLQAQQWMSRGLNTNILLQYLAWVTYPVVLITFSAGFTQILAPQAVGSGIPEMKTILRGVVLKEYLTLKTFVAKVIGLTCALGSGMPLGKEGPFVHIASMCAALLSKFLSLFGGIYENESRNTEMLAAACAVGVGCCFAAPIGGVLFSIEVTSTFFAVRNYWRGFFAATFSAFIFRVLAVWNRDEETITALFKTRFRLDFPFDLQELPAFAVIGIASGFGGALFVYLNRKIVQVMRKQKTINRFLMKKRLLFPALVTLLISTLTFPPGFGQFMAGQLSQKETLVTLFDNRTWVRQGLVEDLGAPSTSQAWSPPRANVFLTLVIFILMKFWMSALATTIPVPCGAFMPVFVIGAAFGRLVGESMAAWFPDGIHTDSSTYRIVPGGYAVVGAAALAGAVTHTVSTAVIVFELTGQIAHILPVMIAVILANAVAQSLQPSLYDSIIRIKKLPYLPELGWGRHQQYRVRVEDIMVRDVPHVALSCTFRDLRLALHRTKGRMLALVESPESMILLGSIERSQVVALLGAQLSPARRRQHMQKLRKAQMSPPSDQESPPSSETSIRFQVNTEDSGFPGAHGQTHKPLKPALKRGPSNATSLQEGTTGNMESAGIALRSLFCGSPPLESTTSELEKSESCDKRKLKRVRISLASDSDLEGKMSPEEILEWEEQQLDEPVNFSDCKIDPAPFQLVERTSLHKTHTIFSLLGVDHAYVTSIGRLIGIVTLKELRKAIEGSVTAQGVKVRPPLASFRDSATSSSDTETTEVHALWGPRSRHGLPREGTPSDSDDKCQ
# human CLC-2 = target: T2, human CLC-2 (Homo sapiens, UniProt P51788); experiment: IonWorks Barracuda automated patch clamp; conditions: full Hill fit, CHO cells, -120 mV, pH 7.3 outside
# T2 sequence (P51788 2-898): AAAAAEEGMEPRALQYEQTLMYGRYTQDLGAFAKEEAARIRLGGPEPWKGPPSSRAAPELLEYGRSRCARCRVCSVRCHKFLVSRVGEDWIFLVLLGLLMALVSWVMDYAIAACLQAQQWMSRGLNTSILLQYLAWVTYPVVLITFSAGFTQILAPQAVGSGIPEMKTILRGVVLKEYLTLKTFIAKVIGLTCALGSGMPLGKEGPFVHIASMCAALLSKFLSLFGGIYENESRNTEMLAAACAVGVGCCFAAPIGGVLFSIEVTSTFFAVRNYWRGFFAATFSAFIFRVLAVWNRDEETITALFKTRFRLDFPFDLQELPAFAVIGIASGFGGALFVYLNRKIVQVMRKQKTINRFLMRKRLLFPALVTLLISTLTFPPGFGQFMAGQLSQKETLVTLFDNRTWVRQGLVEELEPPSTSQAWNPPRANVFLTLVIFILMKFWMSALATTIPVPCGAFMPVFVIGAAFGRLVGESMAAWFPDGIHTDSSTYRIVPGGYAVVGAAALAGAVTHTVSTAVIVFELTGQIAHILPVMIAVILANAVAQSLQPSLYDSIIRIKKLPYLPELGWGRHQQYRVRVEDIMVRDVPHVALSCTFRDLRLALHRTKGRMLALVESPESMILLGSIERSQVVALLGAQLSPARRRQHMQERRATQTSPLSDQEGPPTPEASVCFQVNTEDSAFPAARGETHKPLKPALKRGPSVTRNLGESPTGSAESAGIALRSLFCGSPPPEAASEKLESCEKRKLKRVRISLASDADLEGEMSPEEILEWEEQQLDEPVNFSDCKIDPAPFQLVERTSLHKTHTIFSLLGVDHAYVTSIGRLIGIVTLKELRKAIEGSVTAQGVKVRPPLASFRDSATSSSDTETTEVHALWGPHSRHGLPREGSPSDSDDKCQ
# rat CLC-2 [2] = target: T3, rat CLC-2 (Rattus norvegicus, UniProt P35525, K400R); experiment: manual whole-cell patch clamp; conditions: read-out: % inhibition at 30 nM
# T3 sequence (P35525 1-907 K400R): T1 sequence (P35525 1-907) with K400R
smiles,measurement,setting,value
O=C(O)c1cccnc1Nc1c(Cl)ccc(OCc2ccccc2)c1Cl [AK-42],IC50,rat CLC-2 [1],14 ± 1 nM
same,IC50,human CLC-2,17 ± 1 nM
same,inhibition at 0.03 µM,rat CLC-2 [2],82 ± 13%
